Reference: patent US20020176842A1, “Extended release of active ingredients” (priority 2001, published 2002)

Test: Spectrophotometric absorption test method (uptake of drug by unloaded resin)
Assay type: physicochemical
Details: within 5 hours; 55 ml of 98 mg/l indomethacin in simulated intestinal fluid, 43 mg Cholestyramine USP, 318 nm
Experimental: It is important that the drug be absorbed by the resin. The following test method is useful in determining drug absorption by the resin. In this illustration of the test method, indomethacin and cholestyramine are used. Equipment was set up as described in Example 1, except that the effluent from the uv cell was directed back to the inlet of the pump to produce a circulation flow. 55 ml of a 98 mg/1 solution of indomethacin in simulated intestinal fluid, prepared as described below, was charged to the filtration cell and the pump and stirrer started. Flow rate was approximately 6 ml/min. Absorbance readings were taken on the uv spectrophotometer at a wavelength of 318nm until a steady baseline was obtained. 43 mg of Cholestyramine USP that had been screened to remove particles <75 microns was then added to the cell. Absorbance readings were then taken at frequent intervals to observe the uptake of indomethacin. The absorbance readings were used to calculate the indomethacin concentration from a suitably determined calibration curve and to calculate the total amount of indomethacin absorbed by the resin. In the case of the indomethacin, 92% was absorbed within 5 hours.
Preparation of simulated intestinal fluid: a solution of 6.8 g/l potassium dihydrogen phosphate in deionized water was prepared and sufficient 0.2 mol/1 sodium hydroxide s added to achieve a pH of 7.5.

COc1ccc2c(c1)c(CC(=O)O)c(C)n2C(=O)c1ccc(Cl)cc1 [indomethacin]
indomethacin absorbed by the resin: 92%
